Consider three molecules from patent publication US12419905B2, “Methods and compositions for the treatment of amyloid-related disorders” (YALE UNIVERSITY, priority 2018, dated 2025).

Test [1] deals with APP/PS1 transgenic Alzheimer's model mice. In words: Morris water maze in APP/PS1 mice. It counts as in vivo, mouse. The note with it: fresh ceftazidime (as Fortaz) 100 mg/kg IP BID. On the procedure:
For Morris water maze, mice were randomly assigned to treatment groups and the experimenter was unaware of both genotype and treatment group. Groups were balanced for age, sex, and weight. Mice used were 12-14 months of age at experiment initiation. During treatment, the experimenter was blinded to genotype. For drug treated mice, Poly(4-styrenesulfonic acid co-maleic acid) was administered by twice daily oral gavage of 5.0 mg and 15.0 mg Poly(4-styrenesulfonic acid co-maleic acid) per kg body weight in a vehicle of 0.5% w/v hydroxypropyl methylcellulose and 0.1% w/v polysorbate 80 to APP/PS1 and WT mice, respectively. Vehicle treated animals were gavaged twice daily with vehicle. 500 mg ceftazidime as Fortaz was dissolved per manufacturer's instructions in 1.5 ml sterile milliQ H2O to obtain 333 mg/ml in sodium carbonate solution. Animals treated peripherally with fresh ceftazidime were injected directly after dissolution intraperitoneally with 100 mg ceftazidime per kg body weight in a vehicle of PBS. Animals treated centrally with aged ceftazidime were fitted with an intracerebroventricular cannula (Alzet brain infusion kit 0008663) and subcutaneous osmotic minipump (Alzet model 1004) loaded with aged ceftazidime diluted in PBS. All animals were treated for 4 weeks prior to the Morris water maze and throughout assessment. […]

Test [2] deals with Aßo/PrP^C interaction in stably PrP^C-transfected CV1 cells. The class given is cell-based, rat.

Molecules are shown by their SMILES.

As to `CC(C)(O/N=C(\C(=O)N[C@@H]1C(=O)N2C(C(=O)[O-])=C(C[n+]3ccccc3)CS[C@H]12)c1csc(N)n1)C(=O)O` [ceftazidime], the “MWM latency to hidden platform, effect of treatment” value in test [1] is listed as “no detectable effect”. Besides, the “Aßo/PrP^C interaction-inhibiting activity, aged drug” value in test [2] is given as “exhibited activity”.

Regarding `CO/N=C(\C(=O)N[C@@H]1C(=O)N2C(C(=O)O)=C(CSc3nc(=O)c(=O)[nH]n3C)CS[C@H]12)c1csc(N)n1` [ceftriaxone], in test [2], the “Aßo/PrP^C interaction-inhibiting activity, aged drug” value is on record as “zero activity” and the “Aßo/PrP^C interaction-inhibiting activity, fresh drug” value is recorded as “zero activity”.

Take `CO/N=C(\C(=O)N[C@@H]1C(=O)N2C(C(=O)O)=C(COC(C)=O)CS[C@H]12)c1csc(N)n1` [cefotaxime]: in test [2], the “Aßo/PrP^C interaction-inhibiting activity, aged drug” value is on record as “zero activity” and the “Aßo/PrP^C interaction-inhibiting activity, fresh drug” value is “zero activity”.
